Laboratory results reported in ChEMBL document CHEMBL6177998, “Rational Design of Dual Degraders by Incorporating Molecular Glue Structural Features into PROTAC Degraders” (J Med Chem, 2025).
Activity calls are given as the source filed them. The calls are words filed in the database; no cut-off is given here.

Columns and labels:
[1] = target: T1, Protein cereblon/Androgen receptor (Homo sapiens, UniProt P10275+Q96SW2); assay: PROTAC activity at CRBN/AR in human 22Rv1 cells assessed as induction of AR degradation at 20 nM incubated for 1 hrs by Western blot analysis (reference value: 0 %); type: cell-based
T1 sequence (Q96SW2 whole entry, looked up, one chain of several): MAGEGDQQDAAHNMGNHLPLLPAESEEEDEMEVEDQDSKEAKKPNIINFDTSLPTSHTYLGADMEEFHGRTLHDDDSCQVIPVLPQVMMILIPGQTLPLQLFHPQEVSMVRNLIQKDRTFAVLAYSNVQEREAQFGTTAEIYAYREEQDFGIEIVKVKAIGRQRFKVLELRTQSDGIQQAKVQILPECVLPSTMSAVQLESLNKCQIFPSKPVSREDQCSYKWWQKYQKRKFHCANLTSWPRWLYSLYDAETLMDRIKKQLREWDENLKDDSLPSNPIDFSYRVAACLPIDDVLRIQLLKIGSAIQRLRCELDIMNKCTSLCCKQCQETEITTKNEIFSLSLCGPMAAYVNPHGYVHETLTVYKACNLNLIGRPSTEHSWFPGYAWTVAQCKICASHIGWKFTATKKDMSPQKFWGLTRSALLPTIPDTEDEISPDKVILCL

[2] = target: T1, Protein cereblon/Androgen receptor; assay: PROTAC activity at CRBN/AR in human 22Rv1 cells assessed as induction of AR degradation at 20 nM incubated for 18 hrs by Western blot analysis (reference value: 0 %); type: cell-based
[3] = system: Protein cereblon/Androgen receptor (Homo sapiens), P10275+Q96SW2 [UNDEFINED MUTATION]; assay: PROTAC activity at CRBN/Androgen receptor splice variant 7 in human 22Rv1 cells assessed as induction of AR-V7 degradation at 20 nM incubated for 2 hrs by Western blot analysis (reference value: 0%); type: cell-based
Sequence of Protein cereblon/Androgen receptor (Homo sapiens), P10275+Q96SW2 [UNDEFINED MUTATION] (Q96SW2 whole entry, looked up, change not shown, one chain of several, canonical isoform): as the sequence (Q96SW2 whole entry, looked up, one chain of several) above

[4] = system: Protein cereblon/Androgen receptor (Homo sapiens), P10275+Q96SW2 [UNDEFINED MUTATION]; assay: PROTAC activity at CRBN/Androgen receptor splice variant 7 in human 22Rv1 cells assessed as induction of AR-V7 degradation at 20 nM incubated for 24 hrs by Western blot analysis (reference value: 0%); type: cell-based
[5] = target: T2, Protein cereblon/Eukaryotic peptide chain release factor GTP-binding subunit ERF3A (Homo sapiens, UniProt Q96SW2+P15170); assay: Molecular glue activity at CRBN/GSPT1 in human 22Rv1 cells assessed as induction of GSPT1 degradation at 20 nM incubated for 18 hrs by Western blot analysis (reference value: 0 %); type: cell-based
T2 sequence (P15170 whole entry, looked up, canonical isoform): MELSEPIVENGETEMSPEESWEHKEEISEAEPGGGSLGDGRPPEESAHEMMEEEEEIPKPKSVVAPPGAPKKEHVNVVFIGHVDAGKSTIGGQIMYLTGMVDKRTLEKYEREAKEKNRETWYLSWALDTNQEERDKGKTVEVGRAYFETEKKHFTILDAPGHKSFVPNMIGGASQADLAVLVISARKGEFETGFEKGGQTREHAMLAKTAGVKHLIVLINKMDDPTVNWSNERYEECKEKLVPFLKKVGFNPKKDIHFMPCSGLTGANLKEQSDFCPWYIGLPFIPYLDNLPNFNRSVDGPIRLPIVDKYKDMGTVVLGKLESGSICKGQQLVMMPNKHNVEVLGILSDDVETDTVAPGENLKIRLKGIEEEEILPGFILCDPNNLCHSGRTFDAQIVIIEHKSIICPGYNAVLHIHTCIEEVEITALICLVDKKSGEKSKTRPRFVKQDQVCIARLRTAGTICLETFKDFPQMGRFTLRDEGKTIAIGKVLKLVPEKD
T2 sequence (Q96SW2 whole entry, looked up, canonical isoform): as the sequence (Q96SW2 whole entry, looked up, one chain of several) above

[6] = system: Protein cereblon/Androgen receptor (Homo sapiens), P10275+Q96SW2 [UNDEFINED MUTATION]; assay: PROTAC activity at CRBN/Androgen receptor splice variant 7 in human VCaP cells assessed as induction of AR-V7 degradation at 20 nM by Western blot analysis; type: cell-based; conditions: time 1-36 hrs
[7] = target: T2, Protein cereblon/Eukaryotic peptide chain release factor GTP-binding subunit ERF3A; assay: Molecular glue activity at CRBN/GSPT1 in human LNCaP cells assessed as induction of GSPT1 degradation at 20 nM by Western blot analysis; type: cell-based; conditions: time 1-36 hrs
[8] = target: T1, Protein cereblon/Androgen receptor; assay: PROTAC activity at CRBN/AR in human LNCaP cells assessed as induction of AR degradation by measuring maximal efficacy incubated for 24 hrs by Western blot analysis relative to control; type: cell-based
[9] = system: CWR22R; assay: Effect on androgen receptor mRNA expression in human 22Rv1 cells at 1 to 10 nM incubated for 24 hrs by RT-PCR analysis; type: functional, cell-based; conditions: dose 1-10 nM
[10] = target: T2, Protein cereblon/Eukaryotic peptide chain release factor GTP-binding subunit ERF3A; assay: Molecular glue activity at CRBN/GSPT1 in human VCaP cells assessed as induction of GSPT1 degradation at 50 nM preincubated with MG132 followed by compound addition and measured after 12 hrs by Western blot analysis; type: cell-based
[11] = target: T1, Protein cereblon/Androgen receptor; assay: Binding affinity to CRBN/AR in human 22Rv1 cells assessed as ternary complex formation incubated for 6 hrs by co-immunoprecipitation based Western blot analysis; type: cell-based
[12] = target: T2, Protein cereblon/Eukaryotic peptide chain release factor GTP-binding subunit ERF3A; assay: Binding affinity to CRBN/GSPT1 in human 22Rv1 cells assessed as ternary complex formation incubated for 6 hrs by co-immunoprecipitation based Western blot analysis; type: cell-based
[13] = target: Cereblon/Ikaros (Homo sapiens) (UniProt Q96SW2+Q13422); assay: Molecular glue activity at CRBN/IKZF1 in human 22Rv1 cells assessed as induction of IKZF1 degradation at 1 uM incubated for 6 hrs by Western blot analysis; type: cell-based
[14] = target: Protein cereblon/Zinc finger protein Helios (Homo sapiens) (UniProt Q96SW2+Q9UKS7); assay: Molecular glue activity at CRBN/IKZF2 in human 22Rv1 cells assessed as induction of IKZF2 degradation at 3 uM incubated for 6 hrs by Western blot analysis; type: cell-based
Sequence of Protein cereblon/Zinc finger protein Helios (Homo sapiens) (Q96SW2 whole entry, looked up): as the sequence (Q96SW2 whole entry, looked up, one chain of several) above
Sequence of Protein cereblon/Zinc finger protein Helios (Homo sapiens) (Q9UKS7 whole entry, looked up): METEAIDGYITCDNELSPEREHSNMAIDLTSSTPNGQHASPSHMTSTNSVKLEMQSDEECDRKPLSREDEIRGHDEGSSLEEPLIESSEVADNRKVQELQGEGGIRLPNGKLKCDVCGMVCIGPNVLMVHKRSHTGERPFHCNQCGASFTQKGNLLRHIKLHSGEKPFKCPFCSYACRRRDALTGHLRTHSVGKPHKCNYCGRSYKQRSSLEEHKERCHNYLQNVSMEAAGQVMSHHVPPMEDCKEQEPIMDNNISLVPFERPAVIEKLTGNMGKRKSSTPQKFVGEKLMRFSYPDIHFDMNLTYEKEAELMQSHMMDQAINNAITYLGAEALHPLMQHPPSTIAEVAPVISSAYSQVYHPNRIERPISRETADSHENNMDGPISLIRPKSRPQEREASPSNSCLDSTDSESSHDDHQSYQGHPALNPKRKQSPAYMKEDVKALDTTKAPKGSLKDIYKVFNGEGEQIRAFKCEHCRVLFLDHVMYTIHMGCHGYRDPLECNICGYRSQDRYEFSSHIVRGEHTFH

[15] = system: CWR22R; assay: Upregulation of p53 signaling pathway related gene expression in human 22Rv1 cells at 3 nM incubated for 24 hrs by KEGG enrichment analysis; type: functional, cell-based
[16] = target: T1, Protein cereblon/Androgen receptor; assay: PROTAC activity at CRBN/AR in human 22Rv1 cells assessed as decrease in FKBP5 mRNA level at 1 to 3 nM incubated for 24 hrs by qRT-PCR analysis; type: cell-based; conditions: dose 1-3 nM
[17] = target: T1, Protein cereblon/Androgen receptor; assay: PROTAC activity at CRBN/AR in human LNCaP cells assessed as decrease in TMPRSS2 mRNA level at 10 to 100 nM incubated for 24 hrs by qRT-PCR analysis; type: cell-based; conditions: dose 10-100 nM
[18] = target: T1, Protein cereblon/Androgen receptor; assay: PROTAC activity at CRBN/AR in human LNCaP cells assessed as decrease in FKBP51 protein level incubated for 24 hrs by Western blot analysis; type: cell-based; conditions: dose 1-100 nM
[19] = target: T3, Androgen receptor (Homo sapiens, UniProt P10275); assay: Inhibition of wildtype AR (unknown origin) transcriptional activity transfected in HEK293T cells co-transfected with PSA-luciferase reporter and pRL-TK assessed as reduction in PSA-luciferase activity incubated for 24 hrs by luminescence based microplate reader analysis; type: cell-based
T3 sequence (P10275 whole entry): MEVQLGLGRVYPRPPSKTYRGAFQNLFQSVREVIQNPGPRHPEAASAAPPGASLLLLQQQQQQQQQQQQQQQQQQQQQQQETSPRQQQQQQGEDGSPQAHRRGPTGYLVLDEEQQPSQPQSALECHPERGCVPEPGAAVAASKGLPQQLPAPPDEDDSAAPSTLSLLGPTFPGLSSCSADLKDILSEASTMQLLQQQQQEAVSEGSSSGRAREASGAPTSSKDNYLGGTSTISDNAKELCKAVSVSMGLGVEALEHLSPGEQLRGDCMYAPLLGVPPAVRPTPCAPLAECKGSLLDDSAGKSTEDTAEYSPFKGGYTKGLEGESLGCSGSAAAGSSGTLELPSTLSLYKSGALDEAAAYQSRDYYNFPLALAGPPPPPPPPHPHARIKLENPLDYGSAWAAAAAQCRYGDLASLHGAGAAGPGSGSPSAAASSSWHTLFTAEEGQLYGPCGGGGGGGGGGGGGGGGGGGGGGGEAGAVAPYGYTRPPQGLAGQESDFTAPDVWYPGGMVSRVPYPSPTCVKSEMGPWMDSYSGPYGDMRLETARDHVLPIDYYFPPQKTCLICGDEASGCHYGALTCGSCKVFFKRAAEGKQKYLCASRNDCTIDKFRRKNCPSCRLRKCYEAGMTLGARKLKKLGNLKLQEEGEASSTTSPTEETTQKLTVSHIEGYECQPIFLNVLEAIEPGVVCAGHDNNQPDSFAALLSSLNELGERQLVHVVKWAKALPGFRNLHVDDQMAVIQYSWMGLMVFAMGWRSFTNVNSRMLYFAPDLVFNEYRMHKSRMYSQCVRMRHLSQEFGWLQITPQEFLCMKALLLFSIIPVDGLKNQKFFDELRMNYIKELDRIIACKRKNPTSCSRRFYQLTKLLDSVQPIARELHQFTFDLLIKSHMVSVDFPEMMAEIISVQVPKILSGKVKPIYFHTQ

[20] = system: CWR22R; assay: Induction of apoptosis in human 22Rv1 cells assessed as increase in cleaved caspase-3 expression incubated for 24 hrs by Western blot analysis; type: functional, cell-based; conditions: dose 1-30 nM
[21] = Oral bioavailability in male ICR mouse at 10 mg/kg by LC-MS/MS analysis; type: ADME, organism-based; conditions: in vivo
[22] = Toxicity in male NOD SCID mouse model xenografted with human LNCaP cells assessed as body weight loss at 20 mg/kg, po administered daily for 26 days; type: organism-based; conditions: in vivo, 624 h, time 26 day

SMILES: COc1ccc(C(C)(C)c2cc(Cl)c(OCC3CCN(C(=O)CCCCCNc4ccc5c(c4)C(=O)N(C4CCC(=O)NC4=O)C5=O)CC3)c(C#N)c2)cc1 (configuration not stated)
- Activity [1]: 49%
- Activity [2]: 84.1%
- Activity [3]: 21.8%
- Activity [4]: 95.5%
- Activity [5]: 98.4%
- Activity [6]: Time-dependent-effect
- Activity [7]: Time-dependent-effect
- Emax [8]: 78.7%
- Activity [9]: Minimal_effect
- Activity [10]: inactive
- Activity [11]: Active
- Activity [12]: Active
- Activity [13]: inactive
- Activity [14]: Moderate_effect
- Activity [15]: Active
- Activity [16]: Active
- Activity [17]: Active
- Activity [18]: Dose-dependent-effect
- IC50 [19]: 3.2 nM
- Activity [20]: Dose-dependent-effect
- bioavailability [21]: 11.2%
- Activity [22]: Non-toxic
